From patent US20230338454A1, “FORSYTHIA SUSPENSA COMPONENT AND OPTIONAL PANAX GINSENG COMPONENT AND THE APPLICATION” (priority 2020, published 2023)
Where two headings read alike, the source gives them in different places.

Assays:
[1] = system: fever induced by beer yeast; assay: Fever induced by beer yeast in rats; format: in vivo, Wistar rats; conditions: 10 mg/kg; for Body temperature change (%) (antipyretic percentage), time post-dose 1 h / Body temperature, time post-dose 1 h: 1 h post-dose; for Body temperature change (%) (antipyretic percentage), time post-dose 2 h / Body temperature, time post-dose 2 h: 2 h post-dose; for Body temperature change (%) (antipyretic percentage), time post-dose 3 h / Body temperature, time post-dose 3 h: 3 h post-dose; for Body temperature change (%) (antipyretic percentage), time post-dose 4 h / Body temperature, time post-dose 4 h: 4 h post-dose
Vero cells = assay: Cytotoxicity test of drugs on Vero cells (MTT); conditions: 72 h
[2] = system: NK cells (YAC-1 target cells); assay: Determination of NK cell viability; format: in vivo, Kunming mice; conditions: 144 mg/kg; gavage once daily for 30 days; mice
From the text: One hundred and fifty-two healthy male mice were subjected to acclimation for 4 days before they were randomly divided into 19 groups: the negative control group, positive control group, forsythin group, 20(R)-ginsenoside Rg3 group, high, middle and low dose groups of panax ginseng-forsythia suspensa composition. […] The drugs were given by gavage, once daily for 30 days, and the negative control group was given the same volume of water. One hour after the last dose, the spleens of animals of each group were aseptically excised to prepare splenocyte suspension. […] Then, the concentration of splenocyte suspension was adjusted to 2×10^7 cells/mL. and the splenocyte suspension was added into a 96-well plate for culturing. […] A triplicate set of tubes was prepared for each of the above items. The 96-well plate was incubated at 37° C. in a 5% CO2 incubator for 4 h. After adding LDH matrix solution and 1 moL/L HCl, the solutions in each parallel well were combined, and the absorbance (ABS) was measured at 490 nm. The NK cell viability was calculated: NK cell viability (%) = (ABS reaction well -ABS natural release well)/(ABS maximum release well -ABS natural release well).

Influenza virus [3] = assay: Effect of drugs on viral cytopathic effect, effective antiviral rate (ER%); format: cell-based
[4] = system: respiratory syncytial virus (RSV); assay: as above; format: cell-based; conditions: Vero cells, 100TCID50, drug at maximum non-toxic concentration, 72 h, MTT
[5] = system: sweat secretion of rat paw; assay: Sweat secretion of rat paw (staining method); format: in vivo, Wistar rats; conditions: of 10 rats; dose not printed, gavage
From the text: There are sweat glands on the plantar skin of rats, so the changes in sweat secretion can be observed by the purple reaction between the iodine-starch mixture and the sweat. Five hundred Wistar rats, half male and half female, weighing 120-150 g, were taken in the study. […] The rats were placed in a homemade rat-fixing bag to expose both hind limbs. The dirt on the right paw was gently scrubbed with a cotton swab dipped in absolute ethanol. Except for the pilocarpine solution, which was given by subcutaneous injection, other groups were administered by gavage. One hour after administration (30 min after administration in the pilocarpine group), the sweat secreted from the right paw of rats in each group was gently cleaned with a dry cotton swab before the study and during struggling. The right paw was coated with Wotan-[…] reagent A solution (dissolve 2 g of iodine in 100 mL of absolute ethanol) and then coated with Wotan-[…] reagent B solution (mix 50 g of soluble starch and 100 mL of Ricinus conununis oil well) after reagent A was fully absorbed. […] At the end of the test, a rank-sum test was used to analyze the differences among the groups.

Parainfluenza virus [6] = assay: Effect of drugs on viral cytopathic effect, effective antiviral rate (ER%); format: cell-based; conditions: Vero cells, 100TCID50, drug at maximum non-toxic concentration, 72 h, MTT
Adenovirus (AdV) = assay: as above; format: cell-based; conditions: Vero cells, 100TCID50, drug at maximum non-toxic concentration, 72 h, MTT
parainfluenza virus [7] = format: in vivo, Kunming mice
parainfluenza virus [8] = format: in vivo, Kunming mice; remark: listed apart in the source
influenza virus [9] = format: in vivo, Kunming mice; conditions: for Lung index (x̅ ±S) / Lung index Inhibitory rate (%): 13.0 mg/kg/day by gavage, 5 days
[10] = system: Coxsackievirus A16 (CoxA16); assay: Effect of drugs on viral cytopathic effect, effective antiviral rate (ER%); format: cell-based; conditions: Vero cells, 100TCID50, drug at maximum non-toxic concentration, 72 h, MTT
[11] = system: mouse splenic lymphocytes; assay: ConA-induced mouse splenic lymphocyte transformation test; format: in vivo, Kunming mice; conditions: 144 mg/kg; gavage once daily for 30 days; mice; ABSa-ABSb at 570 nm
Protocol: One hundred and fifty-two healthy male mice were subjected to acclimation for 4 days before they were randomly divided into 19 groups: the negative control group, positive control group, forsythin group, 20(R)-ginsenoside Rg3 group, high, middle and low dose groups of panax ginseng-forsythia suspensa composition. […] The drugs were given by gavage, once daily for 30 days, and the negative control group was given the same volume of water. At 1 h after the last dose, the spleens of animals of each group were aseptically excised to prepare splenocyte suspension. After diluting the splenocyte suspension to a concentration of 3×10^6 cells/mL, the splenocyte suspension was divided into 2 aliquots.Each of the aliquot was transferred into two 24-well culture plates at a volume of 1 mL/well followed by addition of 75 µL of ConA solution (a) was added to one well, and the other well was used as control (b). The wells were cultured at 37° C. for 72 h. Then, thiazolyl blue (MTT) was added 4 h before the end of the culture. After incubation, acidic isopropanol was added, and the absorbance (ABS) of each solution was measured at 570 nm after it was mixed well. The proliferativity was calculated using the formula: proliferativity = ABSa-ABSb. Each dose group of the test sample was compared with the negative control group.

[12] = mice infected with influenza virus
[13] = mice infected with parainfluenza virus, 13.0 mg/kg/day by gavage, 5 days
[14] = […], 13.0 mg/kg/day by gavage, 5 days

COc1ccc([C@H]2OCC3C2CO[C@H]3c2ccc(O[C@@H]3OC(CO)[C@@H](O)[C@H](O)C3O)c(OC)c2)cc1OC (some centres unmarked) [Forsythin]
Body temperature change (%) (antipyretic percentage), time post-dose 1 h [1]: -0.60±0.39%
Body temperature, time post-dose 1 h [1]: 39.13±0.52 °C
Body temperature change (%) (antipyretic percentage), time post-dose 2 h [1]: -0.92±0.93^∗∗ %
Body temperature, time post-dose 2 h [1]: 38.77±0.42 °C
Body temperature change (%) (antipyretic percentage), time post-dose 3 h [1]: -1.29±1.18^∗ %
Body temperature, time post-dose 3 h [1]: 38.63±0.40 °C
Body temperature change (%) (antipyretic percentage), time post-dose 4 h [1]: -1.70±1.23^∗ %
Body temperature, time post-dose 4 h [1]: 38.46±0.31 °C
Half toxic concentration (TC50) (Vero cells): 550 mg/L
Maximum non-toxic concentration (TC0) (Vero cells): 0.0066 g/L
NK cell viability (%) [2]: 41.86±7.24%
Effective Antiviral Rates (ER%) Influenza virus (Influenza virus [3]; Vero cells, 100TCID50, drug at maximum non-toxic concentration, 72 h, MTT): 75.38^∗∗ %
Effective Antiviral Rates (ER%) RSV [4]: 80.40^∗∗ %
Number of animals with sweat spots of each grade at 1 min after application of solution B: grade + [5]: 2 animals
Number of animals with sweat spots of each grade at 1 min after application of solution B: grade ++ [5]: 2 animals
Number of animals with sweat spots of each grade at 1 min after application of solution B: grade +++ [5]: 2 animals
Number of animals with sweat spots of each grade at 1 min after application of solution B: grade +++ (fifth grade column) [5]: 4 animals
Number of animals with sweat spots of each grade at 1 min after application of solution B: grade - [5]: 0 animals
Number of animals with sweat spots of each grade at 5 min after application of solution B: grade + [5]: 1 animals
Number of animals with sweat spots of each grade at 5 min after application of solution B: grade ++ [5]: 2 animals
Number of animals with sweat spots of each grade at 5 min after application of solution B: grade +++ [5]: 2 animals
Number of animals with sweat spots of each grade at 5 min after application of solution B: grade +++ (fifth grade column) [5]: 5 animals
Number of animals with sweat spots of each grade at 5 min after application of solution B: grade - [5]: 0 animals
Effective Antiviral Rates (ER%) Parainfluenza virus (Parainfluenza virus [6]): 84.96^∗∗ %
Effective Antiviral Rates (ER%) ADV (Adenovirus (AdV)): 75.14^∗∗ %
Lung index (x̅ ±S) (parainfluenza virus [7]; mouse, in vivo, 13 mg/kg/day): 1.335±0.062
Lung index Inhibitory rate (%) (parainfluenza virus [7]; mouse, in vivo, 13 mg/kg/day): 16.10%
Hemagglutinin titer (InX) (parainfluenza virus [8]; mouse, in vivo, 13 mg/kg/day): 23.17±1.059
Inhibitory rate (%) of hemagglutination titer (parainfluenza virus [8]; mouse, in vivo, 13 mg/kg/day): 30.01%
Lung index (x̅ ±S) (influenza virus [9]; [12]): 1.280±0.040
Lung index Inhibitory rate (%) (influenza virus [9]; [12]): 14.00%
Effective Antiviral Rates (ER%) CoxA16 [10]: 75.08^∗∗ %
Proliferation ability (×10^-2) [11]: 28.66±12.63 ×10^-2

CC(C)=CCC[C@](C)(O)[C@H]1CC[C@]2(C)[C@@H]1[C@H](O)C[C@@H]1[C@@]3(C)CC[C@H](O[C@@H]4O[C@H](CO)[C@@H](O)[C@H](O)[C@H]4O[C@@H]4O[C@H](CO)[C@@H](O)[C@H](O)[C@H]4O)C(C)(C)[C@@H]3CC[C@]12C [20(R)-Ginsenoside Rg3, 20(R)-ginsenoside Rg3]
Body temperature change (%) (antipyretic percentage), time post-dose 1 h [1]: -0.3±0.41%
Body temperature, time post-dose 1 h [1]: 39.31±0.48 °C
Body temperature change (%) (antipyretic percentage), time post-dose 2 h [1]: -0.69±0.93^∗ %
Body temperature, time post-dose 2 h [1]: 39.04±0.45 °C
Body temperature change (%) (antipyretic percentage), time post-dose 3 h [1]: -1.03±1.18^∗ %
Body temperature, time post-dose 3 h [1]: 38.91±0.40 °C
Body temperature change (%) (antipyretic percentage), time post-dose 4 h [1]: -1.55±1.23^∗ %
Body temperature, time post-dose 4 h [1]: 38.70±0.31 °C
Half toxic concentration (TC50) (Vero cells): 310 mg/L
Maximum non-toxic concentration (TC0) (Vero cells): 0.0048 g/L
NK cell viability (%) [2]: 37.34±7.21%
Effective Antiviral Rates (ER%) Influenza virus (Influenza virus [3]): 74.06^∗∗ %
Effective Antiviral Rates (ER%) RSV [4]: 79.42^∗∗ %
Number of animals with sweat spots of each grade at 1 min after application of solution B: grade + [5]: 1 animals
Number of animals with sweat spots of each grade at 1 min after application of solution B: grade ++ [5]: 3 animals
Number of animals with sweat spots of each grade at 1 min after application of solution B: grade +++ [5]: 3 animals
Number of animals with sweat spots of each grade at 1 min after application of solution B: grade +++ (fifth grade column) [5]: 3 animals
Number of animals with sweat spots of each grade at 1 min after application of solution B: grade - [5]: 0 animals
Number of animals with sweat spots of each grade at 5 min after application of solution B: grade + [5]: 1 animals
Number of animals with sweat spots of each grade at 5 min after application of solution B: grade ++ [5]: 3 animals
Number of animals with sweat spots of each grade at 5 min after application of solution B: grade +++ [5]: 2 animals
Number of animals with sweat spots of each grade at 5 min after application of solution B: grade +++ (fifth grade column) [5]: 4 animals
Number of animals with sweat spots of each grade at 5 min after application of solution B: grade - [5]: 0 animals
Effective Antiviral Rates (ER%) Parainfluenza virus (Parainfluenza virus [6]): 82.21^∗∗ %
Effective Antiviral Rates (ER%) ADV (Adenovirus (AdV)): 51.07%
Lung index (x̅ ±S) (parainfluenza virus [7]; [13]): 1.357±0.050
Lung index Inhibitory rate (%) (parainfluenza virus [7]; [13]): 14.69%
Lung index compared with the infection model group, in words (parainfluenza virus [7]; mice infected with parainfluenza virus, P < 0.05 or P < 0.01): decreased significantly
Hemagglutinin titer (InX) (parainfluenza virus [8]; [14]): 23.79±1.072
Inhibitory rate (%) of hemagglutination titer (parainfluenza virus [8]; [14]): 28.15%
Lung index (x̅ ±S) (influenza virus [9]; […]): 1.302±0.046
Lung index Inhibitory rate (%) (influenza virus [9]; […]): 12.51%
Lung index compared with the infection model group, in words (influenza virus [9]; mouse, in vivo): decreased significantly
Effective Antiviral Rates (ER%) CoxA16 [10]: 52.33%
Proliferation ability (×10^-2) [11]: 23.9±11.70 ×10^-2
